Drawing on BindingDB's records for doi:10.1124/jpet.300.3.1122 (Sanofi-Synthelabo Recherche, 2002), this text covers Ki for one compound.

As usually defined, the Ki is the dissociation constant of the complex between target and ligand, obtained from inhibition or displacement. Lower therefore signals a stronger hold on the target.

In test [1] the target is T1, Vasopressin V1b receptor (Bos taurus, UniProt F1ME85).
T1 sequence (F1ME85 whole entry): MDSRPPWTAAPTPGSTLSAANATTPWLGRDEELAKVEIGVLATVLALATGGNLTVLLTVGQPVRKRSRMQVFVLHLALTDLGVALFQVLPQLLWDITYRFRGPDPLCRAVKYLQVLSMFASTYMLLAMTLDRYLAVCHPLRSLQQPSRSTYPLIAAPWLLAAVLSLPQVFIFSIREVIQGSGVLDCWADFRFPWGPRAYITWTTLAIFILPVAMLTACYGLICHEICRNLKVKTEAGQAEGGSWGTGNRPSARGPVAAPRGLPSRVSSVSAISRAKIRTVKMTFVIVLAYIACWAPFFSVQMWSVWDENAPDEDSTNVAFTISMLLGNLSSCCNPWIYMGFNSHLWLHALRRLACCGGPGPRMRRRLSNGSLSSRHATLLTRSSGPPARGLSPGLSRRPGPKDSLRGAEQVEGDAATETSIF

Test [2] addresses Vasopressin V2 receptor (Rattus norvegicus, UniProt Q00788).
Test [3] deals with Vasopressin V1a receptor (Rattus norvegicus, UniProt P30560).
Vasopressin V1a receptor, sequence (P30560 whole entry): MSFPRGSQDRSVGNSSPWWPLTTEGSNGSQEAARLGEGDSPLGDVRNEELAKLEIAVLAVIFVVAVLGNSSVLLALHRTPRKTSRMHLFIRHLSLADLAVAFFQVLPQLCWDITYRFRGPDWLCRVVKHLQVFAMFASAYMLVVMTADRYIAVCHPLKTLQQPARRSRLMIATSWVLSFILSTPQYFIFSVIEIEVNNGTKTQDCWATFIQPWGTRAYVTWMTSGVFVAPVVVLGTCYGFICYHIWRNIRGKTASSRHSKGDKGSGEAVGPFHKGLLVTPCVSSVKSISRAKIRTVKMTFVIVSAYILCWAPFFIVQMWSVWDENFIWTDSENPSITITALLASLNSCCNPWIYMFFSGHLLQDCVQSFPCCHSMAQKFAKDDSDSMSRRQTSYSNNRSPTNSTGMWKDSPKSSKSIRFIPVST
In test [4] the target is T2, Oxytocin receptor (Rattus norvegicus, UniProt P70536).
T2 sequence (P70536 whole entry): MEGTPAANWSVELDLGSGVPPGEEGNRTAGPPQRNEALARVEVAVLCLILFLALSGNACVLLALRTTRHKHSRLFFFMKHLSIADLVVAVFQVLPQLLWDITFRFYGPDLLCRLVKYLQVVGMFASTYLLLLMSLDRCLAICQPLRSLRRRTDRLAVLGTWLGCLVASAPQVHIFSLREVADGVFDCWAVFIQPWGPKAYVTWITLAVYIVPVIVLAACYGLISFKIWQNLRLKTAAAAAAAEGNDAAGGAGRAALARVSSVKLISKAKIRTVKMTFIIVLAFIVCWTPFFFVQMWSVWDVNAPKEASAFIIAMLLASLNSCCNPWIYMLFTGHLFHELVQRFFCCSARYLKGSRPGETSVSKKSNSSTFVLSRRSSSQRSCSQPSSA

Vasopressin V2 receptor, sequence (Q00788 whole entry): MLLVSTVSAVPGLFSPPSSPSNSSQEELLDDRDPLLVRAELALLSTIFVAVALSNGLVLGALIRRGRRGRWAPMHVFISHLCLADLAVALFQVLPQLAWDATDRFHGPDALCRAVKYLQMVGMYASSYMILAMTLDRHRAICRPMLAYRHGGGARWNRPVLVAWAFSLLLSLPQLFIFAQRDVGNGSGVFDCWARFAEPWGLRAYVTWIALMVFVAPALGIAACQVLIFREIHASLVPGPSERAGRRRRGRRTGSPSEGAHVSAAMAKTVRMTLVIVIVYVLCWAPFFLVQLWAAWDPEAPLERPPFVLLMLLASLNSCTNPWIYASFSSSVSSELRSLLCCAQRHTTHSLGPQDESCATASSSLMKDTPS

Consider `COc1ccc(S(=O)(=O)N2C(=O)[C@@](c3ccccc3OC)(N3C[C@H](O)C[C@H]3C(=O)N(C)C)c3cc(Cl)ccc32)c(OC)c1` [SSR149415], for which the Ki in test [1] is 2.7 nM; in test [2], 2900 nM; in test [3], 1050 nM; in test [4] it was 270 nM.
